Columns and labels:
[1] = system: Hamster Tracheal Organ Culture (keratinization); experiment: tracheal organ culture assay (reversal of keratinization in hamster tracheal organ culture); type: cell-based; details: for Reversal of Keratinization in Hamster Tracheal Organ Culture, Active/Total Cultures: active = neither keratin nor keratohyaline granules seen, or keratohyaline granules alone absent; for Reversal of Keratinization in Hamster Tracheal Organ Culture, Active/Total Cultures (%): percent of active cultures
Procedure: (§1) The ODC assay measures a compound's ability to prevent the induction of ODC. The tracheal organ culture assay measures a compound's ability to reverse keratinization.
The tracheal organ culture assay is carried out as follows. Tracheas are taken from hamsters that are in very early stages of vitamin A deficiency and placed in organ culture. At the time of culture, the animals are still gaining weight; the tracheal epithelium is generally low columnar or cuboidal, with only occasional patches of squamous metaplasia. Each trachea is opened from the larynx to the carina along the membranous dorsal wall and cultured in a serum-free medium (CMRL-1066; with crystalline bovine insulin, 0.1 μg/ml; hydrocortisone hemisuccinate, 0.1 μg/ml; glutamine, 2 mM; penicillin, 100 units/ml; and streptomycin,100 μg/ml, added). Cultures are gassed with 50% oxygen, 45% nitrogen, and 5% CO2. The culture dishes are rocked at 35.5-36.0 degrees to allow the tracheas contact with both gas and medium. All tracheas are grown in medium containing no retinoid for the first 3 days. At the end of 3 days, some tracheas are harvested; almost all of these tracheas have significant squamous metaplasia, and approximately 60% have keratinized lesions. The remaining tracheas are then divided into different groups which are treated with either: (1) retinoid dissolved in dimethylsulfoxide (final concentration of DMSO in culture medium is never greater than 0.1%) or (2) an equivalent amount of DMSO alone. Culture medium is changed three times a week, and all of the remaining tracheas are harvested at the end of 10 days in culture. Tracheas are fixed in 10% buffered formalin and embedded in paraffin. Cross sections of five micrometers are made through the mid-portion, stained with hematoxylin and eosin, and then scored with a microscope for the presence of keratin and keratohyaline granules, both of which are found in approximately 90% of control cultures that received no retinoid for the entire 10 day culture period.

Ornithine Decarboxylase = experiment: ornithine decarboxylase (ODC) assay: inhibition of induction of ODC by 12-O-tetradecanoylphorbol-13-acetate in mouse skin; type: in vivo, mouse (female Charles River CD-1); details: topical, 1 hour before TPA (17 nmol)
Procedure: as §1
The ODC assay is carried out as follows. Female Charles River CD-1 mice from Charles River Breeding Laboratories, Wilmington, Massachusetts, are used (age 7 to 9 weeks). The dorsal hair of the mice is shaved 1 to 2 days before testing, and only mice showing no hair regrowth are used. A single dose of 12-O-tetradecanoylphorbol-13-acetate (TPA) (10.5 μg, 17 nmol) in 0.2 mL of acetone is applied topically to the back of each mouse. The test compound, at one of three dose levels (1.7, 17 and 170 nmol), dissolved in 0.2 mL of acetone is applied 1 hour before the TPA treatment to the test groups; the control group is treated with acetone alone. The mice are killed by cervical dislocation five hours after TPA treatment. Determinations are done in triplicate.
The epidermis is obtained from the sacrificed animals. To obtain sufficient material, the dorsal skins from 2 to 3 mice in each treatment group are pooled. The depilatory agent Nudit® (Helena Rubinstein, New York) is applied to the shaved area of the skin; after 5 minutes, it is washed off thoroughly with cold tap water. Then the skin is excised and plunged immediately into ice-cold water; it is then placed in a 55° C. water bath for 30 seconds and reimmersed in ice-cold water for at least another 30 seconds. The skin is placed epidermis side up on a cold plate, and the epidermis is scraped off with a razor blade. The pooled epidermal sheets are homogenized (Polytron PT-10 homogenizer) at 0° to 4° C. for 15-20 seconds in 50 mM sodium phosphate and 0.1 mM ethylenediaminetetraacetic acid (EDTA), at a volume of 1 mL/skin.
The supernatant fraction remaining after centrifugation of the homogenate at 10,000× g for 30 seconds at 0° C. is used for the enzyme assay. Enzyme activity is determined using the microassay for ODC as described by Verma and Boutwell to measure the release of ^14 CO2 from DL-[1-^14 C]-ornithine (58 mCi/mmol) after incubation with the 10,000× g supernatant. The incubations are carried out by decanting, with a Pasteur pipette, 100 μL of the supernatant containing 100 to 120 μg of protein into two or three 15-mL Corex tubes in a shaking water bath at 37° C. The assay mixture in the tubes consists of 50 μL of 100 mM sodium phosphate buffer (pH 7.2), 10 μL of 4 mM pyridoxal phosphate, 40 μL of 25 mM dithiothreitol, and 1 μL of 0.1 M EDTA. The center wells in the tubes are filled with 200 μL of a 2:1 solution (v/v) of ethanolamine:2-methoxyethanol. The reaction is started by adding 50 μL of substrate (0.5 μCi of DL-[1-^14 C]-ornithine in 2 mM cold ornithine) at 1-minute intervals by injection to each of the stoppered tubes. Incubations are routinely carried out at 37° C. for 30 to 60 minutes. The reaction is stopped by addition of 0.5 ml of 2 M citric acid, and incubation is continued for an additional hour without heating to ensure complete absorption of ^14 CO2.
Radioactivity is measured using a toluene-based scintillant (4 g of PPO and 50 mg of POPOP/L of toluene) in a Beckman LS-250 liquid scintillation counter. Enzyme activity is determined in triplicate and expressed as nanomoles of CO2 released in 30 minutes per milligram of protein. Enzyme activity is linear for the protein concentration used. The protein concentrations of the epidermal extracts are determined by the Lowry procedure, using bovine serum albumin as the standard.

Row | SMILES | Reversal of Keratinization in Hamster Tracheal Organ Culture, Active/Total Cultures ([1]; Conc 10^-8 M) | Reversal of Keratinization in Hamster Tracheal Organ Culture, Active/Total Cultures (%) ([1]; Conc 10^-8 M) | Reversal of Keratinization in Hamster Tracheal Organ Culture, Active/Total Cultures ([1]; Conc 10^-9 M) | Reversal of Keratinization in Hamster Tracheal Organ Culture, Active/Total Cultures (%) ([1]; Conc 10^-9 M) | Reversal of Keratinization in Hamster Tracheal Organ Culture, Active/Total Cultures ([1]; Conc 10^-10 M) | Reversal of Keratinization in Hamster Tracheal Organ Culture, Active/Total Cultures (%) ([1]; Conc 10^-10 M) | Inhibition of Induction of Ornithine Decarboxylase by 12-O-Tetradecanoylphorbol-13-acetate in Mouse Skin, % Inhibition of Control (Ornithine Decarboxylase; Dose 1.7 nmol) [%] | Inhibition of Induction of Ornithine Decarboxylase by 12-O-Tetradecanoylphorbol-13-acetate in Mouse Skin, % Inhibition of Control (Ornithine Decarboxylase; Dose 17 nmol) [%]
1 | CCOC(=O)c1ccc(/C=C(C)/C=C/C2=C(C)CCCC2(C)C)c(OC)c1 [Example 3, (E)-1-(4-carbethoxy-2-methoxyphenyl)-2-methyl-4-(2,6,6-trimethyl-1-cyclohexen-1-yl)-1,3-butadiene] | 7/7 | 100 | 5/7 | 71 | 4/7 | 57 | 21 | 39
2 | CCOC(=O)c1ccc(/C(F)=C(C)/C=C/C2=C(C)CCCC2(C)C)cc1 [Example 1, (1Z,3E)-1-(4-carbethoxyphenyl)-1-fluoro-2-methyl-4-(2,6,6-trimethyl-1-cyclohexen-1-yl)-1,3-butadiene] | 11/12 | 92 | 10/12 | 83 | 6/13 | 46 | 56 | 82
3 | CC1=C(/C=C/C(C)=C/c2ccc(C(=O)O)cc2F)C(C)(C)CCC1 [Example 6, (E)-1-(4-Carboxy-2-fluorophenyl)-2-methyl-4-(2,6,6-trimethyl-1-cyclohexen-1-yl)-1,3-butadiene] | 6/6 | 100 | 12/12 | 100 | 3/11 | 27 | 37 | 78
4 | CCOC(=O)c1ccc(/C=C(C)/C=C/C2=C(C)CCCC2(C)C)c(F)c1 [Example 5, (E)-1-(4-Carbethoxy-2-fluorophenyl)-2-methyl-4-(2,6,6-trimethyl-1-cyclohexen-1-yl)-1,3-butadiene] | 6/6 | 100 | 6/7 | 86 | 4/7 | 56 | 8 | 46
5 | CC1=C(/C=C/C(C)=C(\F)c2ccc(C(=O)O)cc2)C(C)(C)CCC1 [Example 2, (1Z,3E)-1-(4-Carboxyphenyl)-1-fluoro-2-methyl-4-(2,6,6-trimethyl-1-cyclohexen-1-yl)-1,3-butadiene] | 13/13 | 100 | 12/13 | 92 | 5/13 | 38 | 70 | 80

From patent US4532343A, “Aromatic retinoic acid analogues” (SRI International, priority 1982, dated 1985)
